Assays:
Format in all cases: in vivo
[1] = test system: Corn Earworm (Helicoverpa zea, HELIZE); assay: Bioassay on Corn Earworm (CEW), 128-well diet tray assay; settings: 168 h, 50 μg/cm^2 on artificial diet, second instar larvae, five to seven days, 25° C., read-out: CEW % Control (or Mortality) rating
Description: (§1) Example A: Bioassays on Beet Armyworm (Spodoptera exigua, LAPHEG) (“BAW”), Corn Earworm (Helicoverpa zea, HELIZE) (“CEW”), and Cabbage Looper (Trichoplusia ni, TRIPNI) (“CL”)
(§2) Certain molecules disclosed in this document were tested against BAW, CEW, and CL using procedures described in the following examples. In the reporting of the results, the “BAW, CEW, & CL Rating Table” was used (See Table Section).
Bioassays on CEW were conducted using a 128-well diet tray assay. one to five second instar CEW larvae were placed in each well (3 mL) of the diet tray that had been previously filled with 1 mL of artificial diet to which 50 μg/cm^2 of the test molecule (dissolved in 50 μL of 90:10 acetone-water mixture) had been applied (to each of eight wells) and then allowed to dry. Trays were covered with a clear self-adhesive cover, and held at 25° C., 14:10 light-dark for five to seven days. Percent mortality was recorded for the larvae in each well; activity in the eight wells was then averaged. The results are indicated in the table entitled “Table ABC: Biological Results” (See Table Section).

[2] = test system: Beet Armyworm (Spodoptera exigua, LAPHEG); assay: Bioassay on Beet Armyworm (BAW), 128-well diet tray assay; settings: 168 h, 50 μg/cm^2 on artificial diet, second instar larvae, five to seven days, 25° C., read-out: BAW % Control (or Mortality) rating
Description: as §1, §2
Bioassays on BAW were conducted using a 128-well diet tray assay. one to five second instar BAW larvae were placed in each well (3 mL) of the diet tray that had been previously filled with 1 mL of artificial diet to which 50 μg/cm^2 of the test molecule (dissolved in 50 μL of 90:10 acetone-water mixture) had been applied (to each of eight wells) and then allowed to dry. Trays were covered with a clear self-adhesive cover and held at 25° C., 14:10 light-dark for five to seven days. Percent mortality was recorded for the larvae in each well; activity in the eight wells was then averaged. The results are indicated in the table entitled “Table ABC: Biological Results” (See Table Section).

[3] = test system: Cabbage Looper (Trichoplusia ni, TRIPNI); assay: Bioassay on Cabbage Looper (CL), 128-well diet tray assay; settings: 168 h, 50 μg/cm^2 on artificial diet, second instar larvae, five to seven days, 25° C., read-out: CL % Control (or Mortality) rating
Description: as §1, §2
Bioassays on CL were conducted using a 128-well diet tray assay. one to five second instar CL larvae were placed in each well (3 mL) of the diet tray that had been previously filled with 1 mL of artificial diet to which 50 μg/cm^2 of the test molecule (dissolved in 50 μL of 90:10 acetone-water mixture) had been applied (to each of eight wells) and then allowed to dry. Trays were covered with a clear self-adhesive cover and held at 25° C., 14:10 light-dark for five to seven days. Percent mortality was recorded for the larvae in each well; activity in the eight wells was then averaged. The results are indicated in the table entitled “Table ABC: Biological Results” (See Table Section).

[4] = test system: Yellow Fever Mosquito (Aedes aegypti, AEDSAE); assay: Bioassay on Yellow Fever Mosquito (YFM) larvae, 96-well plate; settings: about 1 day-old larvae, 4000 ppm DMSO master plate diluted, graded after 3 days
Description: Example C: Bioassays on Yellow Fever Mosquito (Aedes aegypti, AEDSAE) (“YFM”)
Certain molecules disclosed in this document were tested against YFM using procedures described in the following paragraph. In the reporting of the results, the “YFM Rating Table” was used (See Table Section).
Master plates containing 400 μg of a molecule dissolved in 100 μL of dimethyl sulfoxide (DMSO) (equivalent to a 4000 ppm solution) are used. A master plate of assembled molecules contains 15 μL per well. To this plate, 135 μL of a 90:10 water:acetone mixture is added to each well. A robot (Biomek® NXP Laboratory Automation Workstation) is programmed to dispense 15 μL aspirations from the master plate into an empty 96-well shallow plate (“daughter” plate). There are 6 reps (“daughter” plates) created per master. The created daughter plates are then immediately infested with YFM larvae.
The day before plates are to be treated, mosquito eggs are placed in Millipore water containing liver powder to begin hatching (4 g. into 400 mL). After the daughter plates are created using the robot, they are infested with 220 μL of the liver powder/larval mosquito mixture (about 1 day-old larvae). After plates are infested with mosquito larvae, a non-evaporative lid is used to cover the plate to reduce drying. Plates are held at room temperature for 3 days prior to grading. After 3 days, each well is observed and scored based on mortality. The results are indicated in the table entitled “Table ABC: Biological Results” (See Table Section).

`O=C(Nc1ccc(-c2ncn(-c3ccc(OC(F)(F)F)cc3)n2)cc1)Nc1nccn1-c1ccccc1` [F20, 1-(1-Phenyl-1H-imidazol-2-yl)-3-(4-(1-(4-(trifluoromethoxy)phenyl)-1H-1,2,4-triazol-3-yl)phenyl)urea] gave a mortality at 50 µg/cm2 [1] of 50 to 100%, a mortality at 50 µg/cm2 [2] of 50 to 100% and a mortality at 50 µg/cm2 [3] of 50 to 100%.
In the case of `Cc1ccccc1-n1ccnc1NC(=O)Nc1ccc(-c2ncn(-c3ccc(OC(F)(F)F)cc3)n2)cc1` [F21, 1-(1-(o-Tolyl)-1H-imidazol-2-yl)-3-(4-(1-(4-(trifluoromethoxy)phenyl)-1H-1,2,4-triazol-3-yl)phenyl)urea], the mortality at 50 µg/cm2 [1] is reported as 50 to 100%, the mortality at 50 µg/cm2 [2] is reported as 50 to 100% and the mortality at 50 µg/cm2 [3] is reported as 50 to 100%.
With `CC(C)c1ccccc1-n1ccnc1NC(=O)Nc1ccc(-c2ncn(-c3ccc(OC(F)(F)F)cc3)n2)cc1` [F22, 1-(1-(2-Isopropylphenyl)-1H-imidazol-2-yl)-3-(4-(1-(4-(trifluoromethoxy)phenyl)-1H-1,2,4-triazol-3-yl)phenyl)urea] the mortality at 50 µg/cm2 [1] was 50 to 100%, the mortality at 50 µg/cm2 [2] was 50 to 100% and the mortality at 50 µg/cm2 [3] was 50 to 100%.
`COc1cccc(-n2ccnc2NC(=O)Nc2ccc(-c3ncn(-c4ccc(OC(F)(F)F)cc4)n3)cc2)c1` [F23, 1-(1-(3-Methoxyphenyl)-1H-imidazol-2-yl)-3-(4-(1-(4-(trifluoromethoxy)phenyl)-1H-1,2,4-triazol-3-yl)phenyl)urea] was tested, and the mortality at 50 µg/cm2 [1] was 50 to 100%, the mortality at 50 µg/cm2 [2] was 50 to 100% and the mortality at 50 µg/cm2 [3] was 50 to 100%.
In the case of `Cc1cc(C)c(-c2c(NC(=O)NCCc3ccc(-c4ncn(-c5ccc(OC(F)(F)F)cc5)n4)cc3)on(C)c2=O)c(C)c1` [F59, 1-(4-Mesityl-2-methyl-3-oxo-2,3-dihydroisoxazol-5-yl)-3-(4-(1-(4-(trifluoromethoxy)phenyl)-1H-1,2,4-triazol-3-yl)phenethyl)urea], the mortality at 50 µg/cm2 [2] is reported as 50 to 100%, the “YFM % Control (or Mortality) rating” value [4] is reported as “A (80-100)” and the mortality at 50 µg/cm2 [3] is reported as 50 to 100%.
With `Cn1oc(NC(=O)NCCc2ccc(-c3ncn(-c4ccc(OC(F)(F)F)cc4)n3)cc2)c(-c2c(Cl)cccc2Cl)c1=O` [F60, 1-(4-(2,6-Dichlorophenyl)-2-methyl-3-oxo-2,3-dihydroisoxazol-5-yl)-3-(4-(1-(4-(trifluoromethoxy)phenyl)-1H-1,2,4-triazol-3-yl)phenethyl)urea] the mortality at 50 µg/cm2 [2] was 50 to 100%, the “YFM % Control (or Mortality) rating” value [4] was “A (80-100)” and the mortality at 50 µg/cm2 [3] was 50 to 100%.
In the case of `CCc1ccccc1-c1ncsc1NC(=O)NCCc1ccc(-c2ncn(-c3ccc(OC(F)(F)F)cc3)n2)cc1` [F61, 1-(4-(2-ethylphenyl)thiazol-5-yl)-3-(4-(1-(4-(trifluoromethoxy)phenyl)-1H-1,2,4-triazol-3-yl)phenethyl)urea], the mortality at 50 µg/cm2 [2] is reported as 0%, the “YFM % Control (or Mortality) rating” value [4] is reported as “A (80-100)” and the mortality at 50 µg/cm2 [3] is reported as 50 to 100%.
For `Cc1ccc(C)c(-c2ncsc2NC(=O)NCCc2ccc(-c3ncn(-c4ccc(OC(F)(F)F)cc4)n3)cc2)c1` [F62, 1-(4-(2,5-Dimethylphenyl)thiazol-5-yl)-3-(4-(1-(4-(trifluoromethoxy)phenyl)-1H-1,2,4-triazol-3-yl)phenethyl)urea], the mortality at 50 µg/cm2 [2] was 0%, the “YFM % Control (or Mortality) rating” value [4] was “A (80-100)” and the mortality at 50 µg/cm2 [3] was 50 to 100%.
For `COc1ccc(-c2ncsc2NC(=O)NCCc2ccc(-c3ncn(-c4ccc(OC(F)(F)F)cc4)n3)cc2)c(C)c1` [F63, 1-(4-(4-Methoxy-2-methylphenyl)thiazol-5-yl)-3-(4-(1-(4-(trifluoromethoxy)phenyl)-1H-1,2,4-triazol-3-yl)phenethyl)urea], the mortality at 50 µg/cm2 [2] was 0%, the “YFM % Control (or Mortality) rating” value [4] was “A (80-100)” and the mortality at 50 µg/cm2 [3] was 50 to 100%.
With `O=C(NCCc1ccc(-c2ncn(-c3ccc(OC(F)(F)F)cc3)n2)cc1)Nc1scnc1-c1c(Cl)cccc1Cl` [F64, 1-(4-(2,6-Dichlorophenyl)thiazol-5-yl)-3-(4-(1-(4-(trifluoromethoxy)phenyl)-1H-1,2,4-triazol-3-yl)phenethyl)urea] the mortality at 50 µg/cm2 [2] was 0%, the “YFM % Control (or Mortality) rating” value [4] was “A (80-100)” and the mortality at 50 µg/cm2 [3] was 50 to 100%.
